Where “and” joins values, the source holds several entries; their conditions need not be identical. Identical values can stand only once. Inconclusive results and toxic doses are left out.
Test system: L1210 leukemia ip in BDF1 mice, survival T/C
Assay: NCI In Vivo Anticancer Drug Screen. Data for tumor model L1210 Leukemia (intraperitoneal) in B6D2F1 (BDF1) mice
Conditions: endpoint: mean survival time, higher = longer survival
How it was run: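 Tumor cells were implanted, animals were treated, and survival was followed. The result divides the treated measurement by the vehicle-control measurement.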

[1] = dose: 100.0 mg/kg/injection, schedule: Q04DX003 (ip), vehicle: Klucel (hydroxypropylcellulose) (HPC)
[2] = dose: 200.0 mg/kg/injection, schedule: Q04DX003 (ip), vehicle: Klucel (hydroxypropylcellulose) (HPC)
[3] = dose: 400.0 mg/kg/injection, schedule: Q04DX003 (ip), vehicle: Klucel (hydroxypropylcellulose) (HPC)
[4] = dose: 100.0 mg/kg/injection, schedule: Q01DX001 (ip), vehicle: Klucel (hydroxypropylcellulose) (HPC)
[5] = dose: 200.0 mg/kg/injection, schedule: Q01DX001 (ip), vehicle: Klucel (hydroxypropylcellulose) (HPC)
[6] = dose: 50.0 mg/kg/injection, schedule: Q01DX009 (ip), vehicle: Klucel (hydroxypropylcellulose) (HPC)
[7] = dose: 100.0 mg/kg/injection, schedule: Q01DX009 (ip), vehicle: Klucel (hydroxypropylcellulose) (HPC)
[8] = dose: 200.0 mg/kg/injection, schedule: Q01DX009 (ip), vehicle: Klucel (hydroxypropylcellulose) (HPC)
[9] = dose: 400.0 mg/kg/injection, schedule: Q01DX009 (ip), vehicle: Klucel (hydroxypropylcellulose) (HPC)
[10] = dose: 100.0 mg/kg/injection, schedule: Q04DX003 (ip), vehicle: saline
[11] = dose: 200.0 mg/kg/injection, schedule: Q04DX003 (ip), vehicle: saline
[12] = dose: 400.0 mg/kg/injection, schedule: Q04DX003 (ip), vehicle: saline
[13] = dose: 25.0 mg/kg/injection, schedule: Q04DX002 (ip), vehicle: Klucel (hydroxypropylcellulose) (HPC)
[14] = dose: 50.0 mg/kg/injection, schedule: Q04DX002 (ip), vehicle: Klucel (hydroxypropylcellulose) (HPC)
[15] = dose: 100.0 mg/kg/injection, schedule: Q01DX001 (ip), vehicle: carboxymethylcellulose (CMC)
[16] = dose: 200.0 mg/kg/injection, schedule: Q01DX001 (ip), vehicle: carboxymethylcellulose (CMC)
[17] = dose: 400.0 mg/kg/injection, schedule: Q01DX001 (ip), vehicle: carboxymethylcellulose (CMC)
[18] = dose: 100.0 mg/kg/injection, schedule: Q04DX002 (ip), vehicle: Klucel (hydroxypropylcellulose) (HPC)

C/C=C(\C)C(=O)O[C@@H]1c2cc3c(cc2-c2c(cc(OC)c(OC)c2OC)[C@@H]2C(=O)OC[C@@H]12)OCO3
T/C (dose: 8.0 mg/kg/injection, schedule: Q01DX009 (ip), vehicle: saline + alcohol): 94 % of control
T/C (dose: 12.0 mg/kg/injection, schedule: Q01DX009 (ip), vehicle: saline + alcohol): 108 % of control
T/C (dose: 18.0 mg/kg/injection, schedule: Q01DX009 (ip), vehicle: saline + alcohol): 105 % of control
T/C (dose: 27.0 mg/kg/injection, schedule: Q01DX009 (ip), vehicle: saline + alcohol): 100 % of control

CC(=O)N(C)c1ccc(NC(=O)Nc2cc([N+](=O)[O-])ccc2F)cc1
T/C [1]: 91 % of control
T/C [2]: 97 % of control
T/C [3]: 92 % of control

O=C(O)c1ccc(NC(C(=O)c2ccccc2)c2ccccc2)cc1 (stereo not given)
T/C (dose: 50.0 mg/kg/injection, schedule: Q01DX001 (ip), vehicle: Klucel (hydroxypropylcellulose) (HPC)): 96 % of control
T/C [4]: 107 % of control
T/C [5]: 94 % of control

CN(C)CCCNCC(Cc1ccccc1)c1ccccc1 (stereo not given)
T/C (dose: 100.0 mg/kg/injection, schedule: Q04DX002 (ip), vehicle: saline): 93 % of control

COc1cc(C=O)ccc1OCc1ccccc1
T/C (dose: 100.0 mg/kg/injection, schedule: Q01DX009 (ip), vehicle: saline with Tween-80): 96 % of control and 93 % of control
T/C (dose: 100.0 mg/kg/injection, schedule: Q04DX003 (ip), vehicle: saline with Tween-80): 110 % of control
T/C (dose: 200.0 mg/kg/injection, schedule: Q01DX009 (ip), vehicle: saline with Tween-80): 96 % of control
T/C (dose: 200.0 mg/kg/injection, schedule: Q04DX003 (ip), vehicle: saline with Tween-80): 94 % of control
T/C (dose: 400.0 mg/kg/injection, schedule: Q01DX009 (ip), vehicle: saline with Tween-80): 98 % of control and 93 % of control
T/C (dose: 400.0 mg/kg/injection, schedule: Q04DX003 (ip), vehicle: saline with Tween-80): 100 % of control

c1ccc(C(c2ccccc2)C2CCCCC2)cc1
T/C [1]: 87 % of control
T/C [2]: 90 % of control

Cc1nc2ccccc2n(O)c1=O
T/C [6]: 97 % of control
T/C [7]: 93 % of control
T/C [8]: 89 % of control

CC(=O)Oc1c(Br)c(-c2c(C)c(Br)c(C)c(Br)c2C)c(OC(C)=O)c(Br)c1-c1c(C)c(Br)c(C)c(Br)c1C
T/C [7]: 95 % of control
T/C [8]: 100 % of control
T/C [9]: 95 % of control

O=c1c2ccccc2ccc2ccccc12
T/C [4]: 103 % of control
T/C [7]: 97 % of control
T/C [1]: 100 % of control
T/C [5]: 93 % of control
T/C [8]: 102 % of control
T/C [2]: 103 % of control
T/C (dose: 400.0 mg/kg/injection, schedule: Q01DX001 (ip), vehicle: Klucel (hydroxypropylcellulose) (HPC)): 103 % of control
T/C [9]: 100 % of control
T/C [3]: 105 % of control

CCOC(CCCN=CN(C)C)OCC
T/C [10]: 102 % of control
T/C [11]: 100 % of control
T/C [12]: 102 % of control

O=c1cc(C(F)(F)F)[nH]c2ccccc12
T/C [13]: 106 % of control
T/C [14]: 98 % of control

COc1ccc(Cl)cc1NC(=O)Nc1ccc(S(N)(=O)=O)cc1
T/C [7]: 102 % of control
T/C [8]: 93 % of control
T/C [9]: 94 % of control

CCOc1ccc(OC(=O)c2ccc(O)cc2)cc1
T/C [1]: 106 % of control
T/C [2]: 101 % of control
T/C [3]: 96 % of control

CCCCCCCCCCCCSCCSCCCCCCCCCCCC
T/C [15]: 93 % of control
T/C [16]: 86 % of control
T/C [17]: 102 % of control

COc1ccc2c(=O)c(C)c(C)oc2c1CN1CCOCC1
T/C (dose: 0.78 mg/kg/injection, schedule: Q01DX009 (ip), vehicle: saline): 94 % of control
T/C (dose: 1.56 mg/kg/injection, schedule: Q01DX009 (ip), vehicle: saline): 98 % of control
T/C (dose: 3.12 mg/kg/injection, schedule: Q01DX009 (ip), vehicle: saline): 107 % of control
T/C (dose: 6.25 mg/kg/injection, schedule: Q01DX009 (ip), vehicle: saline): 100 % of control

COc1cc2cnc3c4cc(OC)c(OC)cc4ccc3c2cc1OC
T/C (dose: 80.0 mg/kg/injection, schedule: Q01DX009 (ip), vehicle: saline): 88 % of control
T/C (dose: 120.0 mg/kg/injection, schedule: Q01DX009 (ip), vehicle: saline): 90 % of control
T/C (dose: 240.0 mg/kg/injection, schedule: Q01DX009 (ip), vehicle: saline): 91 % of control

CCC(=O)c1ccc(O)cc1
T/C [1]: 102 % of control
T/C [2]: 102 % of control
T/C [3]: 102 % of control

N#Cc1c(N)nc2ccccc2[n+]1[O-]
T/C [6]: 94 % of control
T/C [7]: 97 % of control
T/C [8]: 100 % of control

O=C(C[P+](c1ccccc1)(c1ccccc1)c1ccccc1)c1ccc([N+](=O)[O-])cc1
T/C (dose: 100.0 mg/kg/injection, schedule: Q01DX001 (ip), vehicle: saline): 105 % of control
T/C (dose: 200.0 mg/kg/injection, schedule: Q01DX001 (ip), vehicle: saline): 105 % of control
T/C (dose: 400.0 mg/kg/injection, schedule: Q01DX001 (ip), vehicle: saline): 100 % of control

c1ccn2cncc2c1
T/C (dose: 75.0 mg/kg/injection, schedule: Q01DX001 (ip), vehicle: saline): 95 % of control
T/C (dose: 150.0 mg/kg/injection, schedule: Q01DX001 (ip), vehicle: saline): 106 % of control
T/C (dose: 300.0 mg/kg/injection, schedule: Q01DX001 (ip), vehicle: saline): 102 % of control

O=P(N1CCCC1)(N1CC1)N1CC1
T/C (dose: 1.3 mg/kg/injection, schedule: Q01DX Z (ip), vehicle: carboxymethylcellulose (CMC)): 94 % of control
T/C (dose: 2.0 mg/kg/injection, schedule: Q01DX Z (ip), vehicle: carboxymethylcellulose (CMC)): 109 % of control
T/C (dose: 2.0 mg/kg/injection, schedule: Q01DX Z (ip), vehicle: saline): 114 % of control and 120 % of control
T/C (dose: 3.0 mg/kg/injection, schedule: Q01DX Z (ip), vehicle: carboxymethylcellulose (CMC)): 109 % of control
T/C (dose: 4.5 mg/kg/injection, schedule: Q01DX Z (ip), vehicle: carboxymethylcellulose (CMC)): 160 % of control
T/C (dose: 7.5 mg/kg/injection, schedule: Q01DX Z (ip), vehicle: saline): 118 % of control

O=C1NC(=O)/C(=C/c2ccccc2)N1
T/C [7]: 96 % of control
T/C [1]: 104 % of control
T/C [8]: 98 % of control
T/C [2]: 96 % of control
T/C [9]: 102 % of control
T/C [3]: 96 % of control

COc1ccc(NC(=O)Nc2ccccc2Cl)cc1
T/C [7]: 96 % of control
T/C [1]: 90 % of control
T/C [8]: 95 % of control
T/C [2]: 92 % of control
T/C [9]: 91 % of control
T/C [3]: 90 % of control

C1OC2CC3CC1C2C3 (stereo not given)
T/C (dose: 10.0 mg/kg/injection, schedule: Q01DX001 (ip), vehicle: acetone): 107 % of control
T/C (dose: 20.0 mg/kg/injection, schedule: Q01DX001 (ip), vehicle: acetone): 104 % of control
T/C (dose: 40.0 mg/kg/injection, schedule: Q01DX001 (ip), vehicle: acetone): 98 % of control

Cc1nc2ccc(Cl)cc2c(=O)[nH]1
T/C (dose: 100.0 mg/kg/injection, schedule: Q01DX001 (ip), vehicle: other): 102 % of control
T/C (dose: 100.0 mg/kg/injection, schedule: Q04DX003 (ip), vehicle: other): 96 % of control
T/C (dose: 200.0 mg/kg/injection, schedule: Q01DX001 (ip), vehicle: other): 96 % of control
T/C (dose: 200.0 mg/kg/injection, schedule: Q04DX003 (ip), vehicle: other): 96 % of control
T/C (dose: 400.0 mg/kg/injection, schedule: Q01DX001 (ip), vehicle: other): 104 % of control
T/C (dose: 400.0 mg/kg/injection, schedule: Q04DX003 (ip), vehicle: other): 96 % of control

O=C1CCC(N2C(=O)C3CCCCC3C2=O)C(=O)N1 (stereo not given)
T/C [10]: 97 % of control
T/C [11]: 93 % of control
T/C [12]: 101 % of control

CC(=O)CC(=O)Nc1cccnc1
T/C [15]: 100 % of control
T/C [16]: 96 % of control
T/C [17]: 100 % of control

C1=CC2CC1CC2/C=N\N=C\C1CC2C=CC1C2 (stereo not given)
T/C [18]: 118 % of control
T/C (dose: 200.0 mg/kg/injection, schedule: Q04DX002 (ip), vehicle: Klucel (hydroxypropylcellulose) (HPC)): 121 % of control

CCOC(=O)/C(C#N)=C/c1ccc2n1Cc1cc(OC)c(OC)cc1N(C(C)=O)C2
T/C [13]: 95 % of control
T/C [14]: 93 % of control
T/C [18]: 87 % of control

Source: PubChem BioAssay AID248 (DTP/NCI, 2004)
